Test results from patent US7354904B2, “Bacteriocin inducer peptides” (priority 2005, dated 2008).

Experiments:
[1] = system: Streptococcus cricetus LWP 760; test: Influence of signal peptide on bacteriocin 760 production, flask culture (fraction protein at 215 nm, activity by Spot Test against C. jejuni and S. enteritidis); assay type: cell-based
S. enteritidis = test: Spot Test, antagonistic activity of isolated signal peptides; assay type: cell-based; details: isolated signal peptide
Method: The antagonistic activity of the bacteriocins produced when using the signal peptide and an inducer strain of bacteria against C. jejuni and S. enteritidis was assessed using a Spot Test. The steps included taking various concentrations of pure preparation (μg/ml) of the bacteriocin in approximately 10 microliters of volume plated onto blood-supplemented Campylobacter agar or Nutrient agar (MPA or Meta Peptone Agar) previously seeded with cells of target bacteria. Plates containing cultures of C. jejuni were grown at about 42° C., under microaerobic conditions. Plates containing S. enteritidis were grown at about 37° C. under aerobic conditions. Activity of the bacteriocin was expressed in arbitrary units (AU) per one milliliter of the preparation at which a visible zone of inhibition of the growth of culture appears (Henderson et al., Archives of Biochemistry and Biophysics, Volume 295, 5-12, 1992; herein incorporated by reference). Specific activity can also expressed as arbitrary units per milligram of pure bacteriocin.
Its activity was about 200 AU/ml and its molecular weight was about 2.5 kDa, as determined by SDS-PAGE electrophoresis. The isoelectric point (pI) was about 7.9 (FIGS. 1A and 1B).
Its molecular weight was about 3.1 kDa as measured by SDS-PAGE and the isoelectric point (pI) was about 8.1 (FIGS. 2A and 2B).
Its molecular weight was about 2.1 kDa as determined by SDS-PAGE electrophoresis and its isoelectric point was about 8.9 (FIGS. 3A and 3B).

[2] = Isoelectric point by isoelectrofocusing; assay type: physicochemical
From the text: FIGS. 1A and 1B are photographs showing the direct detection of signal peptide and bacteriocin OR-7 after SDS-PAGE (A) and isoelectrofocusing (B). […] In FIG. 1A Lane 1-Molecular Mass Markers LMW Range 2,100-12,500 (Amersham Pharmacia Biotech): 2,100; 5,780; 8,400; 12,500 Da. […] Lane 3 contained pI standards (Protein Test Mixture, I Marker Proteins, Serva): 10.0, 9.2, 8.1, 6.9, 5.5, 4.3.
FIGS. 2A and 2B are photographs showing direct detection of signal peptide and bacteriocin 50-52 after SDS-PAGE (A) and isoelectrofocusing (B). […] Lane 3 contained pI standards (Protein Test Mixture, I Marker Proteins, Serva): 10.0, 8.1, 7.9, 6.4, 5.5, 4.3, 4.1, and 3.8.
FIGS. 3A and 3B are photographs showing the direct detection of signal peptide and bacteriocin 760 after SDS-PAGE(A) and isoelectrofocusing (B). […] Lane 3 contained pI standards (Protein Test Mixture, I Marker Proteins, Serva): 10.0, 8.1, 7.9, 6.4, 5.5, 4.3, 4.1, and 3.8.
At the end of 14 hours the supernatant from the cultures was placed into 500 ml centrifuge flasks with about one milliliter of regenerated Sepharose SP Fast Flow (v/v 500: 1). This was incubated for approximately 1 hour at room temperature with stirring. The suspension was then washed with about 100 ml of a 0.2 M TRIS-HCl buffer pH approximately 6.4. The bacteriocins were eluted by centrifugation with about 100 ml of approximately 0.2 M K2HPO4, pH of about 5.8 at about 7,000×g for approximately 10 minutes. Antagonistic activity of the bacteriocin fractions against C. jejuni and S. enteritidis was assessed using a Spot Test as described above. The level of purity of the bacteriocin fractions was determined by SDS-PAGE. The isoelectric points of the fractions were determined by isoelectric focusing. Concentrations of protein for all bacteriocin fractions were determined at 215 nm using a spectrophotometer.

[3] = system: Lactobacillus salivarius PVD-32; test: Influence of signal peptide on bacteriocin OR-7 production, flask culture (fraction protein at 215 nm, activity by Spot Test against C. jejuni and S. enteritidis); assay type: cell-based
[4] = LWP 760 + LWP 320, 0.1 mg LWP 50-52 peptide
[5] = 10% B-B, producer PVD-32 + inducer LWP-252, LWP 50-52 peptide 0.1 mg

TNVTKSWWVLAGCNQVVASNCNCGNVKGLT (listed as Enterococcus faecium) [LWP 50-52 Signal Peptide, signal peptide isolated from Enterococcus faecium LWP 50-52, stimulates bacteriocin 50-52 production]
Activity [1, 4]: 1,638,840 AU/ml
Increase in amount of protein vs. control [1, 4]: 1
Protein Concentration [1, 4]: 0.30 mg/mL
Protein Produced from 1 liter Culture Fluid [1, 4]: 99 mg
Specific Activity [1, 4]: 5,462,666 Au/mg
yield of bacteriocin 760 versus control ([1]; signal peptide of another strain added to LWP 760 + LWP 320): did not increase
antagonistic activity (S. enteritidis): did not possess antagonistic activity
isoelectric point (pI) [2]: about 8.1
Activity [3, 5]: 51,200 AU/ml
Protein Concentration [3, 5]: 0.17 Mg/ml
Protein increase vs. Control [3, 5]: 0.85
Specific Activity [3, 5]: 301,176 AU/mg
mg protein/liter [3, 5]: 56.1 mg protein/liter
yield of bacteriocin OR-7 versus the control ([3]; signal peptide of another strain added to PVD-32 + LWP-252): does not increase
